The conditions of experiment [1]: in vivo; cited from earlier work.
The next experiment addresses T1, JAK2 (Homo sapiens, UniProt O60674).
T1 construct: endogenous in cells; host or cells: Molt4 (ATCC CRL-1582) and Ramos (ATCC CRL-1596) cell lysate; mixed Molt4/Ramos lysate 1:2
Nature of the experiment: Kinobeads assay, JAK2 (competition binding in cell lysate, dot blot detection). To be noted: mixed Molt4/Ramos lysate. The gist of the method: (§1)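 Competition binding of compound against immobilized aminopyrido-pyrimidine affinity beads in mixed Molt4/Ramos lysate (1:2, 10 mg/mL protein), 3 h in cold room. Bead-bound JAK2 or JAK3 eluted and quantified by antibody dot blot with infrared detection; IC50 from 9-step 1:3 dose-response curves.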

Another experiment concerns the target T2, JAK3 (Homo sapiens, UniProt P52333).
T2 construct: endogenous in cells; host or cells: Molt4 (ATCC CRL-1582) and Ramos (ATCC CRL-1596) cell lysate; mixed Molt4/Ramos lysate 1:2
T2 sequence (P52333 1-1124): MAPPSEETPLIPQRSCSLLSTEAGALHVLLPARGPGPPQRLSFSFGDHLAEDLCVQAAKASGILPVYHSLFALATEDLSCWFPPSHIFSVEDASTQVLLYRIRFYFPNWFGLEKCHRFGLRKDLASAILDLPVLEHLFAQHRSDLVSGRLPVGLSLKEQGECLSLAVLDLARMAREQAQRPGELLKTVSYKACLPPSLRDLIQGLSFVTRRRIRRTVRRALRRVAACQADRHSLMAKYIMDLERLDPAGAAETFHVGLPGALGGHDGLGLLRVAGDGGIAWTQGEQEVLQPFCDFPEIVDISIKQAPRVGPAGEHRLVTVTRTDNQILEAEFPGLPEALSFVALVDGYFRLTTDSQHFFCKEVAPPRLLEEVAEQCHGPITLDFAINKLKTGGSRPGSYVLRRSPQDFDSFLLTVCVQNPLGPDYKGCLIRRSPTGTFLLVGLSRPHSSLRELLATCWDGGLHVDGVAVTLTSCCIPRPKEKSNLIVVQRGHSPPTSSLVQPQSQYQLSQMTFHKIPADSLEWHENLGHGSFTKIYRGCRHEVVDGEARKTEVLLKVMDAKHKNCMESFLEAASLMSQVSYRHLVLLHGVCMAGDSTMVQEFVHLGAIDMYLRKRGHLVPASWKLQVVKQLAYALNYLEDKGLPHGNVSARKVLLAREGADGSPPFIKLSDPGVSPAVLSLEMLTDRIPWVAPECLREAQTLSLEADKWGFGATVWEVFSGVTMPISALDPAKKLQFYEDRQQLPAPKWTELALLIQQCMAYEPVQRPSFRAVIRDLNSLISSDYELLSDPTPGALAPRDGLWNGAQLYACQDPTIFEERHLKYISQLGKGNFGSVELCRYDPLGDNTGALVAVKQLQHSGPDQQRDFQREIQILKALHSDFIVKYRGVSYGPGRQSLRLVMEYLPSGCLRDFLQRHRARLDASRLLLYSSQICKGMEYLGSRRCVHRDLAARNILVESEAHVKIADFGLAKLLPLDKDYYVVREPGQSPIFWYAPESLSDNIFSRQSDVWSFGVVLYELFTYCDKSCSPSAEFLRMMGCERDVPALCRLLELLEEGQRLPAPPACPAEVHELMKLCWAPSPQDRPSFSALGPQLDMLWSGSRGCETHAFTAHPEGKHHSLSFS
Nature of the experiment: Kinobeads assay, JAK3 (competition binding in cell lysate, dot blot detection). Particulars: mixed Molt4/Ramos lysate. The method in brief:
as §1

The conditions of experiment [2]: NOD mouse model of type I diabetes; cited from earlier work.
The conditions of experiment [3]: in vivo; cited from earlier work. The source holds these as a separate data set.

By IC50 is commonly meant the concentration that inhibits the measured activity by half. A higher IC50 goes with weaker potency in that assay.

T1 sequence (O60674 whole entry): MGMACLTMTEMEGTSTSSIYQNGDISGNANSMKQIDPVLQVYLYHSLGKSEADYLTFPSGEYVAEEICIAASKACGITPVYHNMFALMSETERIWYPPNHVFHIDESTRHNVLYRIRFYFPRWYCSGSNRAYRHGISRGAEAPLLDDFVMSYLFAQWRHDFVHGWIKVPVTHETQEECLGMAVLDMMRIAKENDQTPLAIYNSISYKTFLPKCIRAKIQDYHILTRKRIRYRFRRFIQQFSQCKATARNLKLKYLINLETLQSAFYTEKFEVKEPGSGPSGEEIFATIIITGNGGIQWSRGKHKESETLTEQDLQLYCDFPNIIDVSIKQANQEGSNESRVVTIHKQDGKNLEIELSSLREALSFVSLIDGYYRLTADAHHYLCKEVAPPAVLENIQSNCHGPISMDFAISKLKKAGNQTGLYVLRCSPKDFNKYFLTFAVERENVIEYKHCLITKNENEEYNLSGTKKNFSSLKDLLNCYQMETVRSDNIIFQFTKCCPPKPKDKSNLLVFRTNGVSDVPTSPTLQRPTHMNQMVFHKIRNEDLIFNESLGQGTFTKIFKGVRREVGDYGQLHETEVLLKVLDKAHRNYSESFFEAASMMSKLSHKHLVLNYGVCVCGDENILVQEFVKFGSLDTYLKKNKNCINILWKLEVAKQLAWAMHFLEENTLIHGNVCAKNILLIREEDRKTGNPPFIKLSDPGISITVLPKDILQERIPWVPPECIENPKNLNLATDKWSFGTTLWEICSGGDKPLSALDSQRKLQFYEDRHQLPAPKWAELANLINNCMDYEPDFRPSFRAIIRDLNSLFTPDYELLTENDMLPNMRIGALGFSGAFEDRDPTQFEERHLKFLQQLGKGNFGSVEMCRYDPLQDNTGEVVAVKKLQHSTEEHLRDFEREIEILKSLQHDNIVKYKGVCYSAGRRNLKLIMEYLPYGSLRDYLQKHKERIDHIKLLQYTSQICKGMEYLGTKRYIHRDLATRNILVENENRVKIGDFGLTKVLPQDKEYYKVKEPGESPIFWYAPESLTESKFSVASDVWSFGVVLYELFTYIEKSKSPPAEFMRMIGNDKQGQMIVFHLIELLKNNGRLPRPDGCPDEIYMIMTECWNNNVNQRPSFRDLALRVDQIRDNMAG

For the molecule `C[C@@H]1CCN(C(=O)CC#N)C[C@@H]1N(C)c1ncnc2[nH]ccc12` [CP-690,550], the “efficacy in an animal model of organ transplantation” value in experiment [1] is “show efficacy”.

Take `Cn1cc(Nc2ncc3cnn(CC4CCCN(CCO)C4)c3n2)cn1` (stereo not drawn) [Example 66, 2-(3-((6-((1-methyl-1H-pyrazol-4-yl)amino)-1H-pyrazolo[3,4-d]pyrimidin-1-yl)methyl)piperidin-1-yl)ethanol]: the IC50 was 1000 to 10000 nM at JAK2 and less than 100 nM at JAK3.

With `Cn1cc(Nc2ncc3cnn(CC4CCCN(CC(F)F)C4)c3n2)cn1` (stereo not drawn) [Example 67, 1-((1-(2,2-difluoroethyl)piperidin-3-yl)methyl)-N-(1-methyl-1H-pyrazol-4-yl)-1H-pyrazolo[3,4-d]pyrimidin-6-amine], the half-maximal inhibitory concentration (IC50) was 1000 to 10000 nM at JAK2 and less than 100 nM on JAK3.

On to `CC(C)NC(=O)CN1CCC(Cn2ncc3cnc(Nc4cnn(C)c4)nc32)C1` (stereo not drawn) [Example 68, N-isopropyl-2-(3-((6-((1-methyl-1H-pyrazol-4-yl)amino)-1H-pyrazolo[3,4-d]pyrimidin-1-yl)methyl)pyrrolidin-1-yl)acetamide], for which the values for the IC50 at JAK2 and on JAK3 were more than 10000 nM and 100 to 1000 nM, respectively.

In the case of `COc1cc2ncnc(Nc3ccc(O)cc3)c2cc1OC` [JANEX-1], the “spontaneous autoimmune diabetes development” value in experiment [2] is on record as “prevent spontaneous autoimmune diabetes development”. Besides, the “severity of GVHD” value in experiment [3] was “attenuate the severity of GVHD”.

The values are drawn from patent US20130131043A1, “PYRAZOLE COMPOUNDS AS JAK INHIBITORS” (priority 2010, published 2013).
